pIC50: −log10 of the molar value.
Columns and labels:
[1] = target: T1, recombinant human muscarinic acetylcholine receptor subtype 1 (mAChR-M1) (Homo sapiens, UniProt P11229); assay: Inhibition of [3H]N-methyl-scopolamine binding to muscarinic acetylcholine receptor subtype 1; details: control compound, read-out: concentration inhibiting the ligand binding to receptor by 50%
T1 construct: purchased BSR BSR-MM1H; host or cells: Chinese Hamster Ovary (CHO) cells
T1 sequence (P11229 1-460): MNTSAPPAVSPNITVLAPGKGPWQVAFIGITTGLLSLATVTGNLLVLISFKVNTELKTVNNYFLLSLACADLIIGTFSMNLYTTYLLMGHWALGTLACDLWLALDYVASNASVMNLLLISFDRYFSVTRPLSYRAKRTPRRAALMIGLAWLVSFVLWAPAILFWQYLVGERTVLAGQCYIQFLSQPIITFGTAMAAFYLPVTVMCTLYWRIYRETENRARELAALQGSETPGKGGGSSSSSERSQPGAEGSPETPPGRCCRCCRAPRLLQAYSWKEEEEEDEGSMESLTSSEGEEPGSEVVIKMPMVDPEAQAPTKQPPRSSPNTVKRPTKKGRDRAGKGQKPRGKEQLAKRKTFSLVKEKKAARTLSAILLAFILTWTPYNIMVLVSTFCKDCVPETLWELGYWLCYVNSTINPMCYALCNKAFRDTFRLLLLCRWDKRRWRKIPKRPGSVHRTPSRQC
Procedure: The ability of each of the compositions obtained in Example 1 in enhancing acetylcholine activity was measured by examining to what extent the binding of a ligand to muscarin acetylcholine receptor subtype 1(M1) is suppressed. That is, an excess amount of a radioactive isotope-labeled ligand was allowed to react with the receptor, unbound ligand was removed by filtering using a glass fiber filter and the amount of the isotope-labeled ligand on the filter was measured to quantify the amount of ligand bound to receptor, and thus, the effects of the compositions of the present invention was determined.
As the receptor, recombinant human muscarinic acetylcholine receptor subtype 1(mAChR-M1, BSR-MM1H, BSR) expressed in Chinese Hamster Ovary (CHO) cells was used. 250 μl of a deep-frozen (−70° C.) receptor fraction was suspended in 10 ml of phosphate buffer saline (PBS) (pH 7.4) and the concentration of the protein was adjusted to 130 μg/ml.
50 μl of 0.5 nM [^3H] N-methyl-scopolamine (24,605 DPM) (NEN, NET-636) and 10 μl of a test composition were added to each well of 96-well microtiter plate (Inotech harvester). […] The filtermat was dried in a microwave oven and the amount of the ligand bound to the receptor was evaluated by determining the radioactivity with the liquid scintillation counter (MicroBeta 1450 Plus; Wallac, Finland). […]

[2] = target: T2, NMDA-receptor (glycine site) (Rattus norvegicus, UniProt P35439); assay: Inhibition of [3H]MDL 105,519 binding to the glycine site of NMDA receptor (rat forebrain fraction); details: control compound, read-out: concentration inhibiting the ligand binding to receptor by 50%
T2 construct: Preparation of NMDA Receptor Fraction from Rat's Cerebrum; from tissue; host or cells: forebrain membrane fraction of male Sprague-Dawley rat
Text: The fact that the compositions of the present invention suppresses neuron damage was confirmed as follows by examining the activity thereof in suppressing the binding formation of NMDA-receptor (glycine site) bound. NMDA (N-Methyl-D-Aspartate) which acts as an excitatory neurotransmitter induces neuron damage.
That is, an excess amount of a radioactive isotope-labeled ligand was allowed to react with the receptor, unbound ligand was removed by filtering using a glass fiber filter and the amount of the isotope-labeled ligand on the filter was measured to quantify the amount of ligand bound to receptor, and thus, the effects of the compositions of the present invention was determined.
Forebrain taken from a male Spargue-Dawley rat was sliced and a 10-fold volume of cold sucrose solution ([…]) was added thereto. The resulting mixture was homogenized (5 strokes) using a Teflon-glass homogenizer, and then centrifuged at 1000 g (10 min., 4° C.). The supernatant was centrifuged at 20000 g (20 min., 4° C.) to obtain a precipitate, a 20-fold volume of cold distilled water was added thereto and homogenized using Brinkman Polytron Homogenizer. […] The protein content was measured according to Bradford method and the protein concentration of suspension was adjusted to 1 mg/ml, divided into several fractions and kept at −70° C. […]

Male rats = assay: Passive-avoidance test after ethanol administration; type: in vivo, rat; details: 250 mg/kg composition (Tacrine 2.5 mg/kg) daily for a week; 3 g/kg 50% ethanol oral before learning; tested 24 hours later, up to 300 seconds
Procedure: Male rats, each weighing about 18 to 20 g, were raised under a condition of temperature 22±1° C. and 12L/12D photoperiod for 7 days while being allowed free access to food and water and used in the Test after 3 days of acclimatization.
The passive avoidance test composed of consecutively learning and testing procedures was conducted over a period of 2 days (interval: 24hours) using PACS-30 shuttle box system (Columbus Instrument Co.).
30 minutes after the 7th (last) administeration, a 3 g/kg dose of 50% ethanol was orally administered to respective rats. After 1 hour, the rats were placed in the bright area of a room which was divided into a dark and bright areas by a guillotin door and allowed to stay there for 30 seconds (the searching time). The guillotin door was opened to let the rats move to the dark side of the room. […] The time the rats took to move from the bright side to the dark side was measured automatically. […]
24 hours after the learning procedure, test procedure was conducted as follows. After 30 seconds of the searching time and opening of the gillontin door, the time the test animal took to move from the bright side to the dark side (latency time) was measured up to the extent 300 seconds. […]

C[N+]1(C)CCC(OC(=O)C(c2ccccc2)c2ccccc2)CC1 [4-DAMP methiodide]
pIC50 [1]: 7.62

O=C(O)c1cc(=O)c2c(Cl)cc(Cl)cc2[nH]1 [5,7-DCKA, 5,7-Dichlorokynurenic acid]
pIC50 [2]: 6.00

Nc1c2c(nc3ccccc13)CCCC2 [Comparative group, 9-amino-1,2,3,4-tetrahydroacrine]
Latency Time (Male rats): 31 s

— patent US20040185128A1, “Use of an extract of the root of balloon-flower for preventing and treating a degenerative brain disease or for enhancing memory” (priority 2001, published 2004)
